Patent US10208046B2, “Nitrogen-containing heterocyclic compound” (Takeda Pharmaceutical Company Limited, priority 2014, dated 2019)

Legend:
[1] = target: T1, human M1 receptor (hCHRM1) (Homo sapiens, UniProt P11229); test: Measurement of M1 receptor positive allosteric modulator (M1PAM) activity, calcium fluorescence in CHO-K1 cells; type: cell-based; details: for activity (%) at 10 μM: 10 μM test compound with acetylcholine at EC20, 100% = acetylcholine 1 μM, 0% = DMSO; for EC50: inflection point in the concentration-dependent curve, acetylcholine at EC20 (final 0.6-0.8 nM), CHO-K1 cells expressing human M1, Fluo-4, FLIPRtetra, read-out: IP value;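 for EC50: potency reported as IP value in nM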
T1 construct: expressed in transfected cells
T1 sequence (P11229 1-460): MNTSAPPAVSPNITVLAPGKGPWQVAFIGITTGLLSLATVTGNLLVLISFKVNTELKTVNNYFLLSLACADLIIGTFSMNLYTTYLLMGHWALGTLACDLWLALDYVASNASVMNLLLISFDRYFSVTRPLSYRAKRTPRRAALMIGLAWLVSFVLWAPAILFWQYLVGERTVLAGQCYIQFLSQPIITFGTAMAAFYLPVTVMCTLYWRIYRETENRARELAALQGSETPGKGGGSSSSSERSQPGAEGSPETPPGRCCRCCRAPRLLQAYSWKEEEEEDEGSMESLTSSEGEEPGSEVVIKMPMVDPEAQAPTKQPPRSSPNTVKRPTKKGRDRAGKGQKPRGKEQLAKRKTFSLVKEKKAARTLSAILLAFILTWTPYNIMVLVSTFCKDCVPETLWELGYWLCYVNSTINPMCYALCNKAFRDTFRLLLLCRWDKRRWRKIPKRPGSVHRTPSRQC
Procedure, shortened: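 CHO-K1 cells stably expressing human M1, Fluo-4 loaded, treated with compound plus acetylcholine at EC20 (final 0.6-0.8 nM); calcium fluorescence read by FLIPR over 1 min. Activity scaled to 1 μM acetylcholine (100%) and DMSO (0%); IP = inflection point of concentration-response curve.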

[2] = system: Scopolamine-induced memory deficits models; test: Novel object recognition test; type: in vivo, male Long-Evans rats; details: scopolamine 0.1 mg/kg s.c., retention trial 4 hr later, mean±standard error
Experimental: Novel Object Recognition Test Novel object recognition test is comprised of two trials called the acquisition and the retention trials. Scopolamine-induced memory deficits models were used for the test, and animals used were male Long-Evans rats (7-week-old). On the day before the test, for acclimation, the rats were allowed to freely move about the test box (40×40×50 cm) for 10 minutes. On the test day, the rats were acclimated to the test room for about 1 hr prior to the test. The test compounds were orally administered to the rats in a single dose 2 hours before the acquisition trial. For induction of learning and memory deficits, scopolamine (0.1 mg/kg) was subcutaneously administered into the rats 30 min before the acquisition trial. For the acquisition trial, two identical objects (A1, A2) were placed in the test box. The rats were put in the test box for 3 min, and the duration exploring each object was measured. The retention trial was performed 4 hr after the acquisition trial. […] The duration for exploring each object in the acquisition trial and the retention trial was measured, and the exploration rate of novel object was calculated. The exploration rate of novel object was expressed as (the duration exploring the novel object)/[(the duration exploring the novel object)+(the duration exploring the familiar object)]×100(%) at mean±standard error.

[3] = system: IP1 production in hippocampi; test: Measurement of myo-inositol 1 phosphate (IP1) in rat hippocampi after oral administration; type: in vivo, male Long-Evans rats; details: rat hippocampus IP1/protein ratio, Vehicle group as 100%
Experimental: Measurement of Myo-Inositol 1 Phosphate (IP1)
Animals used were male Long-Evans rats. They were used after acclimation for at least 1 week. Test compounds were suspended in 0.5% (w/v) aqueous methylcellulose solution, and the suspension was orally administered to the rats. After a given time, lithium chloride was dissolved in saline and subcutaneously administered into the rats. After a given time, their bilateral hippocampi were isolated from the rats, and the wet weight thereof was measured. The isolated hippocampi were homogenized with HEPES buffer, followed by centrifugation. The IP1 and protein concentrations in the supernatant were measured by IP-One HTRF(R) assay kit (Cisbio Bioassays) and BCA protein assay kit (Thermo Scientific), respectively. The level of the IP1 production was expressed as the ratio of the concentration of IP1 to that of protein. The increase rate of the IP1 production was shown as a relative value when Vehicle administration group as 100%.

Row | SMILES | activity (%) at 10 μM [1] [%] | EC50 [1] [nM] | exploration rate of novel object (%) ([2]; 3 mg/kg oral single dose 2 hours before acquisition trial) | exploration rate of novel object (%) ([2]; 10 mg/kg oral single dose 2 hours before acquisition trial) | increase rate (% of Vehicle) ([3]; 30 mg/kg oral) | increase rate (% of Vehicle) ([3]; 10 mg/kg oral) | increase rate (% of Vehicle) ([3]; 3 mg/kg oral)
1 | Cc1nn(C)cc1-c1ccc(CN2Cc3ccnc(OCC(F)F)c3C2=O)cc1 [Example 6, 4-(2,2-difluoroethoxy)-2-(4-(1,3-dimethyl-1H-pyrazol-4-yl)benzyl)-1,2-dihydro-3H-pyrrolo[3,4-c]pyridin-3-one] | 109 | 70 | 58.75±2.01 | 52.48±2.28 | 38 % of Vehicle |  | 
2 | Cc1nn(C)cc1-c1ccc(CN2Cc3ncnc(OCC(C)(F)F)c3C2=O)cc1 [Example 22, 4-(2,2-difluoropropoxy)-6-(4-(1,3-dimethyl-1H-pyrazol-4-yl)benzyl)-6,7-dihydro-5H-pyrrolo[3,4-d]pyrimidin-5-one] | 100 | 28 |  |  |  | 71 % of Vehicle | 
3 | Cn1cc(-c2ccc(CN3Cc4ccnc(OCC(C)(F)F)c4C3=O)cc2)nn1 [Example 107, 4-(2,2-difluoropropoxy)-2-(4-(1-methyl-1H-1,2,3-triazol-4-yl)benzyl)-1,2-dihydro-3H-pyrrolo[3,4-c]pyridin-3-one] | 92 | 72 |  |  |  |  | 
4 | Cc1nn(C)cc1-c1ccc(CN2Cc3ccnc(OCC(F)F)c3C2=O)c(F)c1 [Example 112, 4-(2,2-difluoroethoxy)-2-(4-(1,3-dimethyl-1H-pyrazol-4-yl)-2-fluorobenzyl)-1,2-dihydro-3H-pyrrolo[3,4-c]pyridin-3-one] | 101 | 41 |  |  |  |  | 
5 | Cn1cc(-c2ccc(CN3Cc4ccnc(OCC(F)(F)F)c4C3=O)c(F)c2)nn1 [Example 114, 2-(2-fluoro-4-(1-methyl-1H-1,2,3-triazol-4-yl)benzyl)-4-(2,2,2-trifluoroethoxy)-1,2-dihydro-3H-pyrrolo[3,4-c]pyridin-3-one] | 102 | 56 |  |  |  |  | 
6 | Cn1cc(-c2ccc(CN3Cc4ccnc(OCC(F)F)c4C3=O)c(F)c2)nn1 [Example 115, 4-(2,2-difluoroethoxy)-2-(2-fluoro-4-(1-methyl-1H-1,2,3-triazol-4-yl)benzyl)-1,2-dihydro-3H-pyrrolo[3,4-c]pyridin-3-one] | 98 | 43 |  |  |  |  | 

Compounds with a lower EC50 [1], results first:

Row | activity (%) at 10 μM [1] [%] | EC50 [1] [nM] | SMILES | exploration rate of novel object (%) ([2]; 3 mg/kg oral single dose 2 hours before acquisition trial) | exploration rate of novel object (%) ([2]; 10 mg/kg oral single dose 2 hours before acquisition trial) | increase rate (% of Vehicle) ([3]; 30 mg/kg oral) | increase rate (% of Vehicle) ([3]; 10 mg/kg oral) | increase rate (% of Vehicle) ([3]; 3 mg/kg oral)
7 | 94 | 16 | Cc1nn(C)cc1-c1ccc(CN2Cc3ccnc(OCC(C)(F)F)c3C2=O)c(F)c1 [Example 108, 4-(2,2-difluoropropoxy)-2-(4-(1,3-dimethyl-1H-pyrazol-4-yl)-2-fluorobenzyl)-1,2-dihydro-3H-pyrrolo[3,4-c]pyridin-3-one] |  |  |  |  | 
8 | 94 | 6 | Cc1nn(C)cc1-c1ccc(CN2Cc3ncnc(OCC(C)(F)F)c3C2=O)c(F)c1 [Example 23, 4-(2,2-difluoropropoxy)-6-(4-(1,3-dimethyl-1H-pyrazol-4-yl)-2-fluorobenzyl)-6,7-dihydro-5H-pyrrolo[3,4-d]pyrimidin-5-one] |  |  |  |  | 27 % of Vehicle
